Counter-ions that a name gives are not always drawn.
Tested on: Japanese medaka (Oryzias latipes)
Assay: Fish short-term reproduction assay (FSTRA, OECD TG229), 21-day flow-through exposure
Conditions: for Fertility rate (%) / Mortality (%) Female / Mortality (%) Male / Number of fertilized eggs / Number of total eggs / SSC Female / SSC Male / VTG (ng/mg of liver) Female / VTG (ng/mg of liver) Male: 21 days; for GSI Female / GSI Male / HSI Female / HSI Male / Length Female / Length Male / Weight Female / Weight Male: at completion of exposure
Procedure: The experimental studies on the FSTRA for the 16 chemicals were conducted in two laboratories in Japan, the National Institute for Environmental Studies (NIES, Lab‐1) and the Institute of Environmental Ecology, IDEA Consultants Inc. (Lab‐2), in accordance with OECD TG229 (OECD, [2012a]) (Table 1).
The NIES‐R strain of Japanese medaka (O. latipes), one of the orange‐red varieties, was used in all the 16 chemical studies. For the studies, healthy and mature male and female medakas at 16 ± 2 weeks old were selected from a single‐stock population, which were bred within the test facilities. The test fish were maintained in conditions similar to the assay for at least 7 days, and spawning status was checked during the acclimation period. On the day the chemical exposure commenced, to ensure balanced distribution of test fish between the treatment groups for the reproductive status of the fish, the replicate vessels (fish tanks), with each containing three male and female medaka, were distributed to each treatment and control group, for example, by a randomized block design based on the number of fertilized eggs laid in the last 5–7 days during the acclimation, in each assay.
The water solubility of the test chemical was also taken into consideration when deciding the highest test concentration. To set the lower concentrations, a spacing factor ranging between two and five was used. All assays included a dilution water control (DWC).
Test solutions at the selected concentrations were prepared by diluting a stock solution, which was prepared by an adequate method depending on the physicochemical properties of the test chemicals, for example, by simply mixing the test chemical in dilution water by stirring and/or sonicating for an appropriate time or by using a solid–liquid saturator. In the two laboratories, flow‐through exposure systems, in which a series of test solutions at the target concentrations can be continuously prepared and delivered to test vessels at controlled flow rates (Haselman et al., [2016]; Watanabe et al., [2017]), were used for the exposure experiments.
In the FSTRA, three mature adult males and females in a test vessel were exposed together to the test chemicals in flow‐through condition for 3 weeks. In all the assays, each treatment group, including the DWC group, contained four replicate tanks. During the exposure period, the fish were fed a sufficient amount of live brine shrimp nauplii (newly hatched Artemia sp.) for daily spawning ad libitum. Fecal material in the tanks was appropriately removed by siphoning after feeding. Water temperature of test solutions was recorded for at least one vessel in each treatment and control group every day and for all vessels at least once a week. Furthermore, dissolved oxygen and pH of test solutions were measured for all test vessels at least once a week. Mortality and abnormal behavior and appearance in the fish exposed to test chemicals were daily observed, and any fish that died were removed from the tank as soon as possible. To assess the reproductive status, all eggs females spawned were collected every day. At the completion of the chemical exposure, surviving fish in each tank were sampled.
The eggs females released on the bottom of the tank were collected by siphoning, and the egg clutches still on female abdomen were carefully picked from the body of the females captured using a small net. All the eggs collected were microscopically observed and separately counted for fertilized and unfertilized.

C[C@]12CCC(=O)C[C@@H]1CC[C@@H]1[C@@H]2CC[C@]2(C)[C@@H](O)CC[C@@H]12 [DHT, 5α‐Dihydrotestosterone]
effect on male SSC, in words (21-day exposure): statistical significance
LOEC on female SSC (papillary process formation on anal fin) (21-day exposure, measured conc.): 1.03 µg/L
Fertility rate (%) (measured conc. 0.063 μg/L): 94%
Mortality (%) Female (measured conc. 0.063 μg/L): 0%
Mortality (%) Male (measured conc. 0.063 μg/L): 0%
Number of fertilized eggs (measured conc. 0.063 μg/L): 17
Number of total eggs (measured conc. 0.063 μg/L): 18 ± 5.6 /female/day
SSC Female (measured conc. 0.063 μg/L): 0 ± 0
SSC Male (measured conc. 0.063 μg/L): 72 ± 12
VTG (ng/mg of liver) Female (measured conc. 0.063 μg/L): 617 ± 374 ng/mg of liver
VTG (ng/mg of liver) Male (measured conc. 0.063 μg/L): 1.6 ± 0.4 ng/mg of liver
GSI Female (measured conc. 0.063 μg/L): 10.5%
GSI Male (measured conc. 0.063 μg/L): 1.15%
HSI Female (measured conc. 0.063 μg/L): 3.6%
HSI Male (measured conc. 0.063 μg/L): 1.5%
Length Female (measured conc. 0.063 μg/L): 32.9 mm
Length Male (measured conc. 0.063 μg/L): 33.4 mm
Weight Female (measured conc. 0.063 μg/L): 354 mg
Weight Male (measured conc. 0.063 μg/L): 377 mg
Fertility rate (%) (measured conc. 2.97 μg/L): 84%
Mortality (%) Female (measured conc. 2.97 μg/L): 0%
Mortality (%) Male (measured conc. 2.97 μg/L): 0%
Number of fertilized eggs (measured conc. 2.97 μg/L): 12
Number of total eggs (measured conc. 2.97 μg/L): 14 ± 3.7 /female/day
SSC Female (measured conc. 2.97 μg/L): 22 ± 14
SSC Male (measured conc. 2.97 μg/L): 78 ± 16
VTG (ng/mg of liver) Female (measured conc. 2.97 μg/L): 587 ± 306 ng/mg of liver
VTG (ng/mg of liver) Male (measured conc. 2.97 μg/L): 1.4 ± 0.7 ng/mg of liver
GSI Female (measured conc. 2.97 μg/L): 21.1%
GSI Male (measured conc. 2.97 μg/L): 1.21%
HSI Female (measured conc. 2.97 μg/L): 3.8%
HSI Male (measured conc. 2.97 μg/L): 1.7%
Length Female (measured conc. 2.97 μg/L): 32.8 mm
Length Male (measured conc. 2.97 μg/L): 33.6 mm
Weight Female (measured conc. 2.97 μg/L): 425 mg
Weight Male (measured conc. 2.97 μg/L): 411 mg
effect on fecundity (number of total eggs), in words (within the test concentrations, 21-day exposure): significantly reduced

O=C(c1ccc(OCCN2CCCCC2)cc1)c1c(-c2ccc(O)cc2)sc2cc(O)ccc12 [RAL, Raloxifene hydrochloride]
LOEC for decrease of VTG in females (hepatic VTG, 21-day exposure, measured conc.): 721 µg/L
Fertility rate (%) (measured conc. 63.9 μg/L): 87%
Mortality (%) Female (measured conc. 63.9 μg/L): 0%
Mortality (%) Male (measured conc. 63.9 μg/L): 0%
Number of fertilized eggs (measured conc. 63.9 μg/L): 16
Number of total eggs (measured conc. 63.9 μg/L): 18 ± 4.2 /female/day
SSC Female (measured conc. 63.9 μg/L): 0 ± 0
VTG (ng/mg of liver) Male (measured conc. 63.9 μg/L): 19.6 ± 5.7 ng/mg of liver
GSI Female (measured conc. 63.9 μg/L): 9.6%
GSI Male (measured conc. 63.9 μg/L): 1.03%
HSI Female (measured conc. 63.9 μg/L): 3.2%
HSI Male (measured conc. 63.9 μg/L): 1.5%
Length Female (measured conc. 63.9 μg/L): 36.9 mm
Length Male (measured conc. 63.9 μg/L): 37.5 mm
Weight Female (measured conc. 63.9 μg/L): 555 mg
Weight Male (measured conc. 63.9 μg/L): 511 mg
Fertility rate (%) (measured conc. 203 μg/L): 86%
Mortality (%) Female (measured conc. 203 μg/L): 0%
Mortality (%) Male (measured conc. 203 μg/L): 0%
Number of fertilized eggs (measured conc. 203 μg/L): 14
Number of total eggs (measured conc. 203 μg/L): 16 ± 2.6 /female/day
SSC Female (measured conc. 203 μg/L): 0 ± 0
SSC Male (measured conc. 203 μg/L): 118 ± 15
VTG (ng/mg of liver) Female (measured conc. 203 μg/L): 652 ± 82.4 ng/mg of liver
VTG (ng/mg of liver) Male (measured conc. 203 μg/L): 30.2 ± 11.4 ng/mg of liver
GSI Female (measured conc. 203 μg/L): 10.2%
GSI Male (measured conc. 203 μg/L): 0.97%
HSI Female (measured conc. 203 μg/L): 2.9%
HSI Male (measured conc. 203 μg/L): 1.6%
Length Female (measured conc. 203 μg/L): 37.8 mm
Length Male (measured conc. 203 μg/L): 38.4 mm
Weight Female (measured conc. 203 μg/L): 600 mg
Weight Male (measured conc. 203 μg/L): 550 mg
Fertility rate (%) (measured conc. 721 μg/L): 82%
Mortality (%) Female (measured conc. 721 μg/L): 0%
Mortality (%) Male (measured conc. 721 μg/L): 0%
Number of fertilized eggs (measured conc. 721 μg/L): 14
Number of total eggs (measured conc. 721 μg/L): 17 ± 2.6 /female/day
SSC Female (measured conc. 721 μg/L): 0 ± 0
VTG (ng/mg of liver) Female (measured conc. 721 μg/L): 368 ± 68.4 ng/mg of liver
VTG (ng/mg of liver) Male (measured conc. 721 μg/L): 24.1 ± 13.7 ng/mg of liver
GSI Female (measured conc. 721 μg/L): 10.5%
GSI Male (measured conc. 721 μg/L): 0.96%
HSI Female (measured conc. 721 μg/L): 3.4%
HSI Male (measured conc. 721 μg/L): 1.5%
Length Female (measured conc. 721 μg/L): 38.8 mm
Length Male (measured conc. 721 μg/L): 39.0 mm
Weight Female (measured conc. 721 μg/L): 638 mg
Weight Male (measured conc. 721 μg/L): 612 mg
Fertility rate (%) (measured conc. 2080 μg/L): 72%
Mortality (%) Female (measured conc. 2080 μg/L): 0%
Mortality (%) Male (measured conc. 2080 μg/L): 0%
Number of fertilized eggs (measured conc. 2080 μg/L): 14
Number of total eggs (measured conc. 2080 μg/L): 19 ± 2.5 /female/day
SSC Female (measured conc. 2080 μg/L): 0 ± 0
VTG (ng/mg of liver) Female (measured conc. 2080 μg/L): 305 ± 99.8 ng/mg of liver
VTG (ng/mg of liver) Male (measured conc. 2080 μg/L): 17.2 ± 3.5 ng/mg of liver
GSI Female (measured conc. 2080 μg/L): 11.5%
GSI Male (measured conc. 2080 μg/L): 1.12%
HSI Female (measured conc. 2080 μg/L): 4.7%
HSI Male (measured conc. 2080 μg/L): 1.7%
Length Female (measured conc. 2080 μg/L): 38.8 mm
Length Male (measured conc. 2080 μg/L): 37.1 mm
Weight Female (measured conc. 2080 μg/L): 675 mg
Weight Male (measured conc. 2080 μg/L): 506 mg

Reference: PMC8359193, “Summary of reference chemicals evaluated by the fish short‐term reproduction assay, OECD TG229, using Japanese Medaka, Oryzias latipes” (Journal of Applied Toxicology, 2021)
